Test results reported in US12435083B2, “Cyclopropyl-(hetero)aryl-substituted ethylsulphonyl-pyridine derivatives” (BOEHRINGER INGELHEIM VETMEDICA GMBH, priority 2021, dated 2025).
Where two headings read alike, the source gives them in different places.

Columns and labels:
Plutella xylostella = test: Insecticidal test on Plutella xylostella (Chinese cabbage seedling dip); conditions: 144 h, 500 ppm, seedling dip, 6 days after dip treatment, read-out: activity level (corrected mortality rate), Plutella xylostella
Summary of the method: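 Compounds dispersed in water at 500 ppm; Chinese cabbage seedlings bearing eggs laid by released adults over 2 days were dipped ~30 s, air-dried and kept at 25° C. Dead and live insects counted 6 days later; corrected mortality versus untreated plot scored A (100%), B (90–99%), C (80–89%), D (50–79%).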

[1] = tested on: Spodoptera litura 2nd-instar larvae; test: Insecticidal test on Spodoptera litura (cabbage leaf dip); conditions: foliar, 192 h, 8 days after inoculation, read-out: activity level (corrected mortality rate), Spodoptera litura
Experimental: Example 11: Insecticidal Test on Spodoptera litura
The compounds of formula (I) of the present invention or salts thereof were separately dispersed in water and diluted to 500 ppm. Cabbage leaves were dipped in the dispersion for about 30 seconds. After air dried, the leaves were placed in a plastic Petri dish with a diameter of 9 cm and inoculated with ten 2nd-instar larvae of Spodoptera litura, after which the dish was closed and then allowed to stand in a room at 25° C. 8 days after the inoculation, the numbers of the dead and alive insects were counted. The corrected mortality rate was calculated according to the following formula and the insecticidal activity was evaluated according to the following criteria. Corrected mortality rate (%)=100×(Survival rate in an untreated plot−Survival rate in a treated plot)/Survival rate in an untreated plot • A: the corrected mortality rate is 100% • B: the corrected mortality rate is 90 to 99% • C: the corrected mortality rate is 80 to 89% • D: the corrected mortality rate is 50 to 79%

[2] = tested on: Laodelphax striatellus 3rd-instar nymphs; test: Insecticidal test on Laodelphax striatellus (rice seedling dip); conditions: 192 h, 500 ppm, seedling dip, 8 days after inoculation, read-out: activity level (corrected mortality rate), Laodelphax striatellus
Experimental: Example 13: Insecticidal Test on Laodelphax striatellus
The compounds of formula (I) of the present invention or salts thereof were separately dispersed in water and diluted to 500 ppm. Rice plant seedlings were dipped in the dispersion for about 30 seconds. After air dried, the seedlings were put into a separate glass test tube and inoculated with ten 3rd-instar nymphs of Laodelphax striatellus and then the glass test tube was kept in a room at 25° C. 8 days after the inoculation, the numbers of the dead and alive insects were counted. The corrected mortality rate was calculated according to the following formula and the insecticidal activity was evaluated according to the following criteria. Corrected mortality rate (%)=100×(Survival rate in an untreated plot−Survival rate in a treated plot)/Survival rate in an untreated plot • A: the corrected mortality rate is 100% • B: the corrected mortality rate is 90 to 99% • C: the corrected mortality rate is 80 to 89% • D: the corrected mortality rate is 50 to 79%

[3] = tested on: adult Rhipicephalus sanguineus ticks; test: Contact activity against adult Rhipicephalus sanguineus (coated vial, mortality at 48 h); conditions: Rhipicephalus sanguineus
Summary of the method: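 Compound in acetone/0.02% Triton X-100 coated onto glass vial walls and cap filter paper; after drying, ten adult ticks added per vial. Held at 24° C, 95% relative humidity, 12 h light/dark cycle. Mortality scored visually at 48 hours; EC50 derived from a dose-response series.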

Myzus persicae = test: Insecticidal test on Myzus persicae (foliar application on potted Chinese cabbage); conditions: 144 h, read-out: control efficacy level (control rate), Myzus persicae
Text: Example 14: Insecticidal Test on Myzus persicae
The compounds of formula (I) of the present invention or salts thereof were separately dispersed in water and diluted to 500 ppm. Chinese cabbage plants were planted in plastic pots (diameter: 8 cm, height: 8 cm). Aphids (Myzus persicae) were propagated on the plants and then the number of surviving aphids was counted. The dispersion was applied to the foliage of the potted plants. After the plants were air dried, these were kept in a greenhouse. 6 days after the application, the number of the alive insects was counted on the plants. The control rate was calculated according to the following formula and the control efficacy was evaluated according to the following criteria. Control rate (%)=100−{(T×Ca)/(Ta×C)}×100 • Ta: the number of alive insects before the foliar application in a treated plot • T: the number of alive insects after the foliar application in a treated plot • Ca: the number of alive insects before the foliar application in an untreated plot • C: the number of alive insects after the foliar application in an untreated plot • A: the control rate is 100% • B: the control rate is 90 to 99% • C: the control rate is 80 to 89% • D: the control rate is 50 to 79%

[4] = tested on: adult Ctenocephalides felis fleas; test: Ingestion activity (flea membrane feeding, blood feeding) against adult Ctenocephalides felis; conditions: Ctenocephalides felis
Aedes aegypti L1 larvae = test: Activity against larvae of Aedes aegypti (L1 larvae, 384-well, image-based mortality); conditions: 48 h at 27° C., 384-well, read-out: EC50 (percentage of mortality, A. aegypti L1 larvae)
Experimental: Example 3: Screening Method to Test Activity of Compounds of Formula (I) Against Larvae of Aedes aegypti
Eight A. aegypti L1 larvae in a total volume of 64 μL water were added to 384-well microplates containing compounds formulated in 100% DMSO. The plates were incubated for 48 h at 27° C. Individual well images were acquired and analyzed using a pipeline to quantitatively assess the amount of larvae biomass accumulating at the bottom of the well. The efficacy of a compound at a given dose is expressed as “percentage of mortality” and determined by comparison to average biomass descriptors of positive and negative control wells containing 1.0 μM Fipronil or DMSO only, respectively. Dose response assay were conducted to determine an EC50 value.

[5] = tested on: adult Ctenocephalides felis fleas; test: Contact activity against adult Ctenocephalides felis (treated surface, motility by machine vision, 24 h); conditions: treated surface, 24h, read-out: EC80 (% motility reduction, adult C. felis, contact)
Text: Example 7: Screening Method to Test Contact Activity of Compounds of Formula (I) Against Adult Ctenocephalides felis

[6] = tested on: nymphs of Dermacentor variabilis ticks; test: Oral rat-tick efficacy against nymphs of Dermacentor variabilis ticks; assay type: in vivo; conditions: rats, oral gavage 10 mg/kg on Day 0, tick count on Day 3
Experimental: Example 10: Comparison of Oral Rat-Tick Efficacy Data for Selected Specific Compounds of Formula (I) Against Nymphs of Dermacentor variabilis Ticks
On Day −1, rats were sedated, fitted with an Elizabethan collar, and infested with approximately 35 nymphal stage D. variabilis ticks. On Day 0, each rat was treated via oral gavage with the appropriate formulation of placebo, positive control, or test compound at the appropriate dose. On Day 3, all rats were euthanized, and ticks were removed, counted, and disposed of. In Table 2 efficacy is expressed in % mortality compared to negative controls containing compound vehicle only.

[7] = 48 hours post-treatment, coated vial, read-out: EC50 (percentage mortality, adult R. sanguineus, contact)
[8] = 500 ppm, foliar application, 6 days after application
[9] = bovine blood, 24h post treatment, read-out: EC80 (% motility reduction, adult C. felis, ingestion via membrane feeding)

Row | Compound | mortality at 500 ppm (Plutella xylostella) | mortality at 500 ppm [1] | mortality at 500 ppm [2] | EC50 [3, 7] | pest or weed control at 500 ppm (Myzus persicae; [8]) | EC80 ([4]; 24 h, read-out: EC80 (% motility reduction, adult C. felis, ingestion via membrane feeding)) | EC50 ([3]; 48 h, read-out: EC50 (percentage mortality, adult R. sanguineus, contact)) | pest or weed control at 500 ppm (Myzus persicae; foliar) | EC50 (Aedes aegypti L1 larvae) | EC80 ([4]; 24 h, flea membrane feeding (ingestion, blood feeding) assay, EC80, read-out: C. felis membrane feeding (ingestion/blood feeding) activity EC80) | EC80 [4, 9] | EC50 ([3]; contact assay, >100 μM = not active at the top concentration, read-out: R. sanguineus contact activity EC50) | EC80 [5] | Observed efficacy (% mortality compared to negative controls) [6]
1 | CCS(=O)(=O)c1cc(-c2ccc(C3CC3)cc2)cnc1-c1nc2cc(C(C)(F)F)cnc2n1C [Compound 194, 5-(4-cyclopropylphenyl)-2-[6-(1,1-difluoroethyl)-3-methylimidazo[4,5-b]pyridin-2-yl]-3-(ethanesulfonyl)pyridine] | 100% | 100% | 100% | 10 to 100 µM | 100% | – | – | – | – | – | – | – | – | –
2 | CCS(=O)(=O)c1cc(-c2cc(C3CC3)ccn2)cnc1-c1nc2cc(C(F)(F)C(F)(F)F)cnc2n1C [Compound 182, 4-cyclopropyl-5′-(ethanesulfonyl)-6′-[3-methyl-6-(1,1,2,2,2-pentafluoroethyl)-3H-imidazo[4,5-b]pyridin-2-yl]-2,3′-bipyridine] | 100% | 100% | 100% | – | – | < 1 µM | 10 to 100 µM | 100% | – | – | – | – | – | –
3 | CCS(=O)(=O)c1cc(-c2ccc(C3CC3)cc2)cnc1-c1nc2cc(C(F)(F)F)n(C3CC3)c(=O)c2n1C [Compound 45, 5-cyclopropyl-2-[5-(4-cyclopropylphenyl)-3-(ethanesulfonyl)pyridin-2-yl]-3-methyl-6-(trifluoromethyl)imidazo[4,5-c]pyridin-4-one] | 100% | 100% | 100% | < 10 µM | 100% | – | – | – | < 0.04 µM | 1 to 10 µM | 1 to 10 µM | < 10 µM | – | –
4 | CCS(=O)(=O)c1cc(-c2ccc(C3CC3)cc2)cnc1-c1nc2cc([S+]([O-])C(F)(F)F)ccc2n1C (centres unmarked) [Compound 43, 2-[5-(4-cyclopropylphenyl)-3-(ethanesulfonyl)pyridin-2-yl]-1-methyl-5-trifluoromethanesulfinyl-1,3-benzodiazole] | 100% | 100% | – | – | 100% | – | – | – | < 0.04 µM | – | 1 to 10 µM | – | 1 to 10 µM | –
5 | CCS(=O)(=O)c1cc(-c2ccc(C3(C#N)CC3)cc2)cnc1-c1nc2cc(C(F)(F)F)cn(CC(F)F)c-2c1F [compound 67] | – | – | – | – | – | – | – | – | – | – | – | – | – | >95%
6 | CCS(=O)(=O)c1cc(-c2ccc(C3CC3)cc2)cnc1-c1nc2cc(S(=O)(=O)C(F)(F)F)ccc2n1C [Compound 42, 2-[5-(4-cyclopropylphenyl)-3-(ethanesulfonyl)pyridin-2-yl]-1-methyl-5-trifluoromethanesulfonyl-1,3-benzodiazole] | 100% | 100% | – | – | – | – | – | – | < 0.04 µM | – | 1 to 10 µM | – | 1 to 10 µM | –
